The values that follow come from US11833256B2, “Selective RARγ ligand-loaded nanoparticles for manipulation of targeted bone growth” (University Of Maryland, Baltimore, priority 2017, dated 2023).

A value given as a limit tells only on which side of the number the result lay.

Series [1] can be described thus: Nanoparticle characterisation (size, drug loading). The note with it: in PLA-based NP.
Experimental: The drug loading of NP was determined spectrophotometrically against suitable calibration curves following two-step drug extraction in sec-butanol. Particle size measurements were performed by dynamic light scattering using a 90 Plus Particle Size Analyzer. An external sink method was applied for measuring drug release kinetics under sink conditions as follows: NP were diluted in PBS/2% bovine serum albumin and incubated with a water-immiscible acceptor medium (1-octanol and n-heptane, 1:1 v/v), and the released drug assayed spectrophotometrically in the acceptor medium samples at predetermined time-points.
For series [2], the system named is Chick limb bud cells. In words: Limb bud cell high density culture, cartilage matrix by Alcian blue. The class given is cell-based. To be noted: RA 1 μM or AGN194310 100 nM for 6 days. As to the method: The limb bud cells were inoculated at a high density and treated with retinoids. Cartilage matrix accumulation was visualized by Alcian blue staining. […] Similar testing was described in Hoffman et al., J. Cell. Biol. 174:101-113, 2006. Chick limb bud cells were isolated from […], seeded at the density of 4×10^5 cells in 10 μL and maintained in 1% FBS containing high glucose DMEM for 3 days. Cultures then were treated with 0.1% EtOH (vehicle), retinoic acid (RA) 1 μM or AGN194310 100 nM for 6 days, fixed, and stained with Alcian Blue, pH 1.0.

A short description of series [3]: Hydrophobicity of acetaminophen-capped prodrug derivative versus parent. It is filed as physicochemical. To be noted: acetaminophen-capped derivative vs parent retinoid. An excerpt:
In order to produce an in situ activatable, reversibly hydrophobized prodrug derivatives of a RARγ agonist, a pro-drug can be delivered in a nanoparticle formulation. […] However, the ionizable carboxylic group promotes the partitioning of the compound from the particle to the surrounding aqueous medium. […] The compound would be activatable upon release can increase the stability of the particle-cargo association and help achieve a more lasting and highly localized therapeutic effect. Such constructs are in essence mutual prodrugs or co-drugs, as they regenerate in one step the retinoid compound and acetaminophen, a biologically active “helper” agent, which can play an important supporting role in therapy.

Series [4] addresses T1, RARγ (Homo sapiens, UniProt P13631).
T1 sequence (P13631 1-454): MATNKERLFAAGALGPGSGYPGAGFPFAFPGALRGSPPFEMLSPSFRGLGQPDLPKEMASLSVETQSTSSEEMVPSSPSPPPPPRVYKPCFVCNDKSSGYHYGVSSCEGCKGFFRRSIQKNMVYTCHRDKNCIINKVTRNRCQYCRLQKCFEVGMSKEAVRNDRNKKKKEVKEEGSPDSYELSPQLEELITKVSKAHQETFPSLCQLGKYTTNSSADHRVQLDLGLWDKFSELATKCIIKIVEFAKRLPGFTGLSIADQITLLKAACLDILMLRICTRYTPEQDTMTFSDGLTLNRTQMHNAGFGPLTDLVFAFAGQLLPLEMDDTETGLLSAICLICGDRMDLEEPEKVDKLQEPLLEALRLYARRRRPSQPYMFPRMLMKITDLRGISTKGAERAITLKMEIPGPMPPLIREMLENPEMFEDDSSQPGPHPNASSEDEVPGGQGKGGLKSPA
Briefly: Potency (ED50/EC50) of RARγ agonists.

For series [5], the system named is heterotopic ossification (HO) in FOP patients. To be noted: systemic palovarotene; top-line results of ongoing Phase II trial; cited from earlier work.
In series [6] the test system is heterotopic ossification (HO). In words: Heterotopic ossification in FOP model mice, oral palovarotene. It is filed as in vivo, mouse. The note with it: oral administration. An excerpt:
As discussed above, control and adjustment of specific long bone growth dysregulation requires achieving a highly localized and sustained therapeutic effect. Today, surgical resection combined with systemically administered anti-inflammatory drugs is the primary treatment modality for acquired HO. Treatment options for FOP are further limited. Because the surgical procedure itself can induce additional HO formation, systemic drug therapy aimed at reducing HO progression and related symptoms is the sole choice. […] However, despite the significant reduction in HO with this treatment regimen, systemic administration of the RARγ agonist fails to completely prevent the disease. Enhancing efficacy by increasing the systemic drug dosage may not be possible without causing strong and even toxic off-target effects. Thus, the inventive methods of treatment here increase the activity at the target site without inducing unwanted systemic effects using biodegradable nanoparticle (NP) formulations impregnated with a potent RARγ agonist capable of targeting specific areas of bone.
Acvr1cR206H/+; R26-rtTA; tetO-cre mice, treated with doxycycline to induce global expression of Acvr1cR206H/+, were subjected to hindlimb muscle injury with cardiotoxin and examined by μCT imaging 14 days after treatment with palovarotene (right) or vehicle (left). […]

As to `CC(=O)Nc1ccc(OC(=O)c2ccc3cc(C4(c5ccc6c(c5)C(C)(C)CCC6(C)C)SCCS4)ccc3c2)cc1` [MM 11253 prodrug], in series [1], the average particle size was found to be 565 nm, the drug loading is 1 mg/mL, the entrapment yield was found to be 67% and the polydispersity index is given as below 0.1.
As to `CCc1ccc(C2=CC(C)(C)Sc3ccc(C#Cc4ccc(C(=O)O)cc4)cc32)cc1` [AGN194310], the “cartilage matrix production / cartilage forming region (Alcian blue)” value in series [2] was “enhanced”.
For the molecule `CC1(C)CCC(C)(C)c2cc(Cn3cccn3)c(/C=C/c3ccc(C(=O)O)cc3)cc21` [palovarotene], the “more hydrophobic derivative if modified with acetaminophen” value in series [3] is on record as 15 fold. Moreover, the “potency (EC50) compared with NRX204647” value in series [4] is listed as “inferior to that of NRX204647”. In series [5], the “reduction of HO in patients” value is recorded as “up to 70%”. Further, the “HO in FOP model mice” value in series [6] is reported as “effectively reduces HO”.
